Experimental data as given in the NIST ThermoML archive (doi:10.1016/j.fluid.2006.11.004).
Numbers after ± are expanded uncertainties.

Test: xn = mol fraction of the nth substance listed
Settings: 273.15 K, 111 kPa, Fluid (supercritical or subcritical phases), Flux Response Technology (based on capillary viscometry)

| SMILES | excess molar volume (x1 = 1) [m3/mol] | excess molar volume (x2 = 0) [m3/mol] | excess molar volume (x2 = 0.0001) [m3/mol] | excess molar volume (x2 = 0.113) [m3/mol] | excess molar volume (x2 = 0.236) [m3/mol] | excess molar volume (x2 = 0.362) [m3/mol] | excess molar volume (x2 = 0.48) [m3/mol] | excess molar volume (x2 = 0.482) [m3/mol] | excess molar volume (x2 = 0.56) [m3/mol] | excess molar volume (x2 = 0.561) [m3/mol] | excess molar volume (x2 = 0.6) [m3/mol] | excess molar volume (x2 = 0.715) [m3/mol] | excess molar volume (x2 = 0.833) [m3/mol] |
| --- | --- | --- | --- | --- | --- | --- | --- | --- | --- | --- | --- | --- | --- |
| O=C=O [carbon dioxide] + FC(F)(Cl)Cl | 0 ± 1e-07 |  |  |  |  |  |  |  |  |  |  |  |  |
| FC(F)(Cl)Cl [dichlorodifluoromethane] + O=C=O |  | 0 ± 1e-07 | 0 ± 1e-07 | 3.11e-05 ± 4.4e-06 | 4.65e-05 ± 6.5e-06 | 5.16e-05 ± 7.2e-06 | 5.54e-05 ± 7.8e-06 | 4.91e-05 ± 6.9e-06 | 5.6e-05 ± 7.8e-06 | 5.24e-05 ± 7.3e-06 | 5.03e-05 ± 7e-06 | 5.03e-05 ± 7e-06 | 3.21e-05 ± 4.5e-06 |
